Broadly, the pA2 is a measure of antagonist potency on a negative log scale. Read a high pA2 as a more potent antagonist.

The source of these data is ChEMBL document CHEMBL3272315, “Synthesis of angiotensin II antagonists containing N- and O-methylated and other amino acid residues” (J Med Chem, 1976).

Assay [1] concerns Rattus norvegicus. Briefly: Potentiation of angiotensin 2-induced blood pressure in chronic adrenalectomized rat at 250 ng/kg/min, iv in presence of propranolol relative to before compound infusion. In kind it is functional.
Assay [2] concerns Rattus norvegicus. The experiment in a line: Induction of blood pressure in rat at 250 ng/kg/min, iv measured at 30 mins in presence of propranolol (reference value: 3.66 +/- 0.74 mmHg). Type of assay: functional.
Assay [3] concerns Rattus norvegicus. Briefly: Induction of blood pressure in chronic adrenalectomized rat at 250 ng/kg/min, iv measured at 30 mins (reference value: 3.66 +/- 0.74 mmHg). In kind it is functional.
Assay [4] concerns Rattus norvegicus. Briefly: Induction of blood pressure in 6 days adrenalectomized rat at 250 ng/kg/min, iv measured at 30 mins (reference value: 3.66 +/- 0.74 mmHg). In kind it is functional.
Assay [5] has as its system Rattus norvegicus. The experiment in a line: Induction of blood pressure in sham operated rat at 250 ng/kg/min, iv measured at 3 mins (reference value: 0.78 +/- 0.26 mmHg). In kind it is functional.
The test system of assay [6] is Rattus norvegicus. The experiment in a line: Induction of blood pressure in acute adrenalectomized rat at 250 ng/kg/min, iv measured at 3 mins (reference value: 0.78 +/- 0.26 mmHg). In kind it is functional.
Assay [7] has as its system Rattus norvegicus. The experiment in a line: Potentiation of angiotensin 2-induced blood pressure in sham operated rat at 250 ng/kg/min, iv relative to before compound infusion. Type of assay: functional.
The subject of assay [8] is Rattus norvegicus. Briefly: Potentiation of angiotensin 2-induced blood pressure in 6 days adrenalectomized rat at 250 ng/kg/min, iv in presence of propranolol relative to before compound infusion. In kind it is functional.
A short description of assay [9]: Antagonist activity at angiotensin AT2 receptor in isolated cat adrenal medulla. Type of assay: tissue-based, Felis catus.
Assay [10] has as its system Rattus norvegicus. The experiment in a line: Induction of blood pressure in chronic adrenalectomized rat at 250 ng/kg/min, iv measured at 3 mins (reference value: 0.78 +/- 0.26 mmHg). In kind it is functional.
For assay [11], the system named is Rattus norvegicus. Briefly: Induction of blood pressure in rat at 250 ng/kg/min, iv measured at 3 mins in presence of propranolol (reference value: 0.78 +/- 0.26 mmHg). In kind it is functional.
The species named for another assay is Felis catus. Briefly: Agonist activity at angiotensin AT2 receptor in isolated cat adrenal medulla assessed as secretory activity relative to angiotensin 2. In kind it is tissue-based.
In assay [12] the test system is Rattus norvegicus. Briefly: Potentiation of angiotensin 2-induced blood pressure in rat at 250 ng/kg/min, iv relative to before compound infusion. In kind it is functional.
Assay [13] has as its system Rattus norvegicus. Briefly: Induction of blood pressure in sham operated rat at 250 ng/kg/min, iv measured at 30 mins (reference value: 3.66 +/- 0.74 mmHg). In kind it is functional.
The test system of assay [14] is Rattus norvegicus. The experiment in a line: Potentiation of angiotensin 2-induced blood pressure in acute adrenalectomized rat at 250 ng/kg/min, iv in presence of propranolol relative to before compound infusion. Type of assay: functional.
Assay [15] has as its system Rattus norvegicus. Briefly: Induction of blood pressure in rat at 250 ng/kg/min, iv measured at 30 mins (reference value: 3.66 +/- 0.74 mmHg). Type of assay: functional.
The test system of assay [16] is Rattus norvegicus. Briefly: Induction of blood pressure in rat at 250 ng/kg/min, iv measured at 3 mins (reference value: 0.78 +/- 0.26 mmHg). In kind it is functional.
In assay [17] the test system is Rattus norvegicus. The experiment in a line: Induction of blood pressure in 6 days adrenalectomized rat at 250 ng/kg/min, iv measured at 3 mins (reference value: 0.78 +/- 0.26 mmHg). In kind it is functional.
The subject of assay [18] is Rattus norvegicus. Briefly: Potentiation of angiotensin 2-induced blood pressure in acute adrenalectomized rat at 250 ng/kg/min, iv relative to before compound infusion. Type of assay: functional.
For assay [19], the system named is Rattus norvegicus. The experiment in a line: Induction of blood pressure in acute adrenalectomized rat at 250 ng/kg/min, iv measured at 30 mins (reference value: 3.66 +/- 0.74 mmHg). In kind it is functional.

For `CC[C@H](C)[C@H](NC(=O)[C@H](Cc1ccc(O)cc1)NC(=O)[C@@H](NC(=O)[C@H](CCCNC(=N)N)NC(=O)CNC)C(C)C)C(=O)N[C@@H](Cc1cnc[nH]1)C(=O)N1CCC[C@H]1C(=O)N[C@H](C(=O)O)[C@@H](C)OC`, the Ratio in the assay with Rattus norvegicus [1] is reported as 12.06; with Rattus norvegicus [7], 45.86; with Rattus norvegicus [8] it was 11.61; in the assay on Rattus norvegicus [12], 62.52; in the assay on Rattus norvegicus [14], 54.16; in the assay with Rattus norvegicus [18], 22.96. The Activity is given as -1.25 mmHg in the assay on Rattus norvegicus [2]; 2.25 mmHg in the assay with Rattus norvegicus [3]; -0.4 mmHg in the assay with Rattus norvegicus [4]; 19.25 mmHg with Rattus norvegicus [5]; 7.75 mmHg in the assay with Rattus norvegicus [6]; 5 mmHg in the assay on Rattus norvegicus [10]. Also, the Activity stood at 11.5 mmHg in the assay with Rattus norvegicus [11]; 0.1% in the assay filed under Felis catus; 11 mmHg in the assay with Rattus norvegicus [13]; 15.63 mmHg in the assay on Rattus norvegicus [15]; 13.82 mmHg in the assay on Rattus norvegicus [16]; 3 mmHg in the assay on Rattus norvegicus [17]. In the assay with Rattus norvegicus [19], this molecule returned an Activity of 7.62 mmHg. Besides, in assay [9], the pA2 was found to be 7.
